Test results taken from patent US8674070B2, “Cancer-targeting peptides and uses thereof in cancer therapy” (Academia Sinica, priority 2009, dated 2014).

Columns and labels:
[1] = Doxorubicin localization in tumor tissues of treated mice; format: in vivo, SCID mice; details: 2 mg/kg tail vein
Description: At selected time points, three mice in each group were anaesthetized and sacrificed.

[2] = test system: BT483 breast cancer xenografts; experiment: Treatment of breast tumor xenografts: tumor volume; format: in vivo, SCID mice; details: doxorubicin 3 mg/kg once a week for three weeks, tail vein; n=6, P<0.005
Experimental: SCID mice (4-6 weeks of age) were injected s.c. in the dorsolateral flank with 1×10^7 BT483 cells to induce breast cancer xenografts. The tumor volumes in these mice were determined by the formula: length×[…]×0.52. The mice bearing xenograft tumors at a size of around 50-100 mm^3 were randomly assigned to four groups, each of which was treated as follows via administration through their tail veins.
Group 1: treated with SP90 conjugated doxorubicin-containing liposomes (SP90-LD) at a doxorubicin dosage of 3 mg/kg, once a week for three weeks,
Group 2: treated with doxorubicin-containing liposomes (LD), at a doxorubicin dosage of 3 mg/kg, once a week for three weeks,
Group 3: treated with free doxorubicin (FD), at a doxorubicin dosage of 3 mg/kg, once a week for three weeks, and
Group 4: treated with saline once a week for three weeks (blank control).
Mouse body weights and tumor sizes were measured twice a week. Tumor volumes were calculated following the formula described above.

[3] = Total white blood cell count in treated tumor-bearing mice; format: in vivo, SCID mice; details: three days after the last treatment (day 17); doxorubicin 3 mg/kg weekly x3
Experimental: The total white blood cell (WBC) numbers in the treated mice were determined three days after the last treatment (i.e., on day 17) as follows. […] The blood was then mixed with a red blood cell lysis buffer containing 2% acetic acid and 1% of Gentian violet (Sigma-Aldrich, Saint Louis, Mo., USA) and incubated at room temperature. The number of the WBCs was countered using a hemacytometer.

tumor blood vessels = experiment: Tumor blood vessel staining with tomato lectin; format: in vivo, SCID mice; details: doxorubicin 3 mg/kg weekly x3; FIG. 3 Panel B
Description: Tumor tissues were removed from the treated mice, fixed with 4% paraformaldehyde and embedded with paraffin. Blood vessels in the tumor tissues were detected by staining with Lycopersicon esculentum (tomato) lectin conjugated to biotin (Vector, CA, USA) and then with streptavidin-conjugated rhodamine (Pierce, Ill., USA).

[4] = test system: cancer cells in breast cancer tissue samples; experiment: Peptide competition assay on cancer tissue samples; format: binding, human; details: peptide 100 ng/ml; PC90 10^9 pfu
Experimental: The cancer targeting activity of PC90 was confirmed by a peptide competition assay, in which the cancer tissue samples were incubated with (1) the synthetic peptide (100 ng/ml) SMDPFLFQLLQL (SEQ ID NO:5) (SP90) and PC90 (10^9 pfu) or (2) the control peptide (100 ng/ml) RLLDTNRPLLPY (SEQ ID NO:6; see Lee et al., cancer Res. 64:8002-8008, 2004) and PC90. SP90 and the control peptide were synthesized and purified by reverse-phase high-performance liquid chromatography. The resultant peptides, having a purity of greater than 95%, were conjugated, if necessary, with FITC or biotin at their N-termini.

breast tumor xenografts = experiment: In vivo peptide competition: co-injection with PC90 in mice bearing breast tumor xenografts; details: 100 μg peptide co-injected with PC90
Experimental: SP90 was co-administered to test its ability of blocking PC90 from binding to the tumor tissues. Briefly, 100 μg SP90 or the control peptides described above were co-injected with PC90 to mice bearing breast tumor xenografts. The normal organs and tumor tissues were removed and fixed in Bouin's solution (Sigma, Mo., USA). After fixation, the samples were embedded in paraffin blocks, sliced to sections, and the sections were deparaffinized, rehydrated, and subjected to immunostaining using the mouse anti-M13 mAb described in Example 1 above.

Compound | areas of tumor tissue in which doxorubicin was detected (autofluorescence) [1] | average tumor volume, fold larger than that of the Group 2 mice [2] | total number of the WBCs [3] | number of tumor vessels / tumor vascular density (lectin staining) (tumor blood vessels) | competition against PC90 for binding to the cancer cells in the tissue samples [4] | inhibition of PC90 binding to the tumor tissues (breast tumor xenografts)
COc1cccc2c1C(=O)c1c(O)c3c(c(O)c1C2=O)C[C@@](O)(C(=O)CO)C[C@@H]3O[C@H]1C[C@H](N)[C@H](O)[C@H](C)O1 [FD, doxorubicin] | detected only in limited areas | 8.3 fold | 5.6×10^3 /mm^3 | high tumor vascular density | – | –
RLLDTNRPLLPY [control peptide] | – | – | – | – | not | did not exhibit any inhibitory activity
SMDPFLFQLLQL [SP90] | – | – | – | – | competed against PC90 for binding to the cancer cells | 97%
